In patent publication US20240158446A1, “CYCLIC COMPOUND HAVING SELECTIVE INHIBITORY ACTION ON KRAS OVER HRAS AND NRAS” (CHUGAI SEIYAKU KABUSHIKI KAISHA, priority 2021, published 2024):
pIC50, pKd: −log10 of the molar value.

Legend:
[1] = system: human lung cancer strain NCI-H441;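 also: cell proliferation inhibition after four days measured by CellTiter-Glo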
[2] = biological target: GDP-bound KRAS wild-type protein (Homo sapiens, UniProt P01116); test: Binding to KRAS by surface plasmon resonance (SPR), Single Cycle Kinetics; details: SPR, Single Cycle Kinetics, 1:1 binding model; GDP-bound KRAS wild-type protein; read-out: KRAS KD
[3] = biological target: GDP-bound NRAS wild-type protein (Homo sapiens, UniProt P01111); test: Binding to NRAS by surface plasmon resonance (SPR), Single Cycle Kinetics; details: SPR; GDP-bound NRAS wild-type protein vs GDP-bound KRAS wild-type protein; KD ratio class
[4] = biological target: GDP-bound HRAS wild-type protein (Homo sapiens, UniProt P01112); test: Binding to HRAS by surface plasmon resonance (SPR), Single Cycle Kinetics; details: SPR; GDP-bound HRAS wild-type protein vs GDP-bound KRAS wild-type protein; KD ratio class
Sequence of GDP-bound HRAS wild-type protein (P01112 whole entry): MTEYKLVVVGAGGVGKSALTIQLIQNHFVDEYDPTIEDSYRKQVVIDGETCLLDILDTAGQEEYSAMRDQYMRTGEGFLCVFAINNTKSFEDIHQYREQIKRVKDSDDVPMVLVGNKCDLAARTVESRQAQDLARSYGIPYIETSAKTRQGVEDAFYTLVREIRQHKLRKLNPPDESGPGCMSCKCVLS

Sequence of GDP-bound KRAS wild-type protein (P01116 whole entry): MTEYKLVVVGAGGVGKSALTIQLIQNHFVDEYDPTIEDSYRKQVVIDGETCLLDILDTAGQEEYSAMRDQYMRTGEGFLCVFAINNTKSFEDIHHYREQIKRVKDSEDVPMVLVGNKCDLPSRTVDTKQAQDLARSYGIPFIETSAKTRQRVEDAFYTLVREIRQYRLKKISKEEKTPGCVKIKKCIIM
Sequence of GDP-bound NRAS wild-type protein (P01111 whole entry): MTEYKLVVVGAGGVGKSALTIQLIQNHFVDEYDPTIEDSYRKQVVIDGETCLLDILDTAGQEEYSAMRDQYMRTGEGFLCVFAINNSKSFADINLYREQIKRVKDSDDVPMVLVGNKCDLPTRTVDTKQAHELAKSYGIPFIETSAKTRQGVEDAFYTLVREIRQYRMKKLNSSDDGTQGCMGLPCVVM

SMILES | pIC50 [1] | pKd [2] | NRAS/KRAS (ratio of KD value for NRAS to KD value for KRAS) [3] | HRAS/KRAS (ratio of KD value for HRAS to KD value for KRAS) [4]
CCO[C@@H]1C[C@H]2C(=O)NC3(CCC3)C(=O)N(C)[C@@H](C3CCCC3)C(=O)N(C)[C@H](C(=O)N3CCOCC3)CC(=O)N(C)[C@@H](CC)C(=O)N[C@@H]([C@@H](C)CC)C(=O)N(C)CC(=O)N(C)[C@H]3CC[C@@H](C)CN(C3=O)[C@@H](Cc3ccc(C(F)(F)F)cc3)C(=O)N(C)CC(=O)N[C@@H](CCc3cc(F)c(C(F)(F)F)c(F)c3)C(=O)N2C1 [PP1372] | 8.30 | 10.11 | B (a compound having 3 or more and less than 10 is denoted as B) | B (a compound having 3 or more and less than 10 is denoted as B)
CCO[C@@H]1C[C@H]2C(=O)NC3(CCC3)C(=O)N(C)[C@@H](C3CCCC3)C(=O)N(C)[C@H](C(=O)N3CCOCC3)CC(=O)N(C)[C@@H](CC(C)C)C(=O)N[C@@H]([C@@H](C)CC)C(=O)N3CC[C@H]3C(=O)N(C)[C@H]3CC[C@@H](C)CN(C3=O)[C@@H](Cc3ccc(C(F)(F)F)cc3)C(=O)N(C)CC(=O)N[C@@H](CCc3cc(F)c(C(F)(F)F)c(F)c3)C(=O)N2C1 [PP1373] | 7.91 | 9.46 | B (a compound having 3 or more and less than 10 is denoted as B) | B (a compound having 3 or more and less than 10 is denoted as B)
CCO[C@@H]1C[C@H]2C(=O)NC3(CCC3)C(=O)N(C)[C@@H](C3CCCC3)C(=O)N(C)[C@H](C(=O)N3CCOCC3)CC(=O)N(C)[C@@H](CC)C(=O)N[C@@H]([C@@H](C)CC)C(=O)N3CC[C@H]3C(=O)N(C)[C@H]3CC[C@@H](C)CN(C3=O)[C@@H](Cc3ccc(C(F)(F)F)cc3)C(=O)N(C)CC(=O)N[C@@H](CCc3ccc(C(F)(F)F)c(Cl)c3)C(=O)N2C1 [PP1375] | 7.94 | 9.64 | B (a compound having 3 or more and less than 10 is denoted as B) | B (a compound having 3 or more and less than 10 is denoted as B)
CCO[C@@H]1C[C@H]2C(=O)NC3(CCCC3)C(=O)N(C)[C@@H](C3CCCC3)C(=O)N(C)[C@H](C(=O)N(C)C)CC(=O)N(C)[C@@H](CC)C(=O)N[C@@H]([C@@H](C)CC)C(=O)N(C)CC(=O)N(C)[C@H]3CC[C@@H](C)CN(C3=O)[C@@H](Cc3ccc(C(F)(F)F)cc3)C(=O)N(C)CC(=O)N[C@@H](CCc3ccc(C(F)(F)F)c(Cl)c3)C(=O)N2C1 [PP1376] | 8.46 | 10.43 | B (a compound having 3 or more and less than 10 is denoted as B) | B (a compound having 3 or more and less than 10 is denoted as B)
CCO[C@@H]1C[C@H]2C(=O)NC3(CCCC3)C(=O)N(C)[C@@H](C3CCCC3)C(=O)N(C)[C@H](C(=O)N3CCOCC3)CC(=O)N(C)[C@@H](CC)C(=O)N[C@@H]([C@@H](C)CC)C(=O)N(C)CC(=O)N(C)[C@H]3CC[C@@H](C)CN(C3=O)[C@@H](Cc3ccc(C(F)(F)F)cc3)C(=O)N(C)CC(=O)N[C@@H](CCc3ccc(C(F)(F)F)c(Cl)c3)C(=O)N2C1 [PP1377] | 8.24 | 10.06 | B (a compound having 3 or more and less than 10 is denoted as B) | B (a compound having 3 or more and less than 10 is denoted as B)
CCO[C@@H]1C[C@H]2C(=O)NC3(CCC3)C(=O)N(C)[C@@H](C3CCCC3)C(=O)N(C)[C@H](C(=O)N3CCOCC3)CC(=O)N(C)[C@@H](CC)C(=O)N[C@@H]([C@@H](C)CC)C(=O)N(C)CC(=O)N(C)[C@H]3CC[C@@H](C)CN(C3=O)[C@@H](Cc3ccc(C(F)(F)F)cc3)C(=O)N(C)CC(=O)N[C@@H](CCc3ccc(C(F)(F)F)c(Cl)c3)C(=O)N2C1 [PP1378] | 8.18 | 10.09 | B (a compound having 3 or more and less than 10 is denoted as B) | C (A compound having a KD ratio of 0.1 or more and less than 3 is denoted as C)
CCO[C@@H]1C[C@H]2C(=O)NC3(CCC3)C(=O)N(C)[C@@H](C3CCCC3)C(=O)N(C)[C@H](C(=O)N3CCOCC3)CC(=O)N(C)[C@@H](CC(C)C)C(=O)N[C@@H]([C@@H](C)CC)C(=O)N3CC[C@H]3C(=O)N(C)[C@H]3CC[C@@H](C)CN(C3=O)[C@@H](Cc3ccc(C(F)(F)F)cc3)C(=O)N(C)CC(=O)N[C@@H](CCc3ccc(C(F)(F)F)c(Cl)c3)C(=O)N2C1 [PP1379] | 7.99 | 9.54 | A (a compound having 10 or more and less than 20 is denoted as A) | B (a compound having 3 or more and less than 10 is denoted as B)
CC[C@H](C)[C@@H]1NC(=O)[C@H](CC)N(C)C(=O)C[C@@H](C(=O)N(C)C)N(C)C(=O)[C@H](C2CCCC2)N(C)C(=O)C2(CCCC2)NC(=O)[C@@H]2CCCN2C(=O)[C@H](CCc2cc(F)c(C(F)(F)F)c(F)c2)NC(=O)CN(C)C(=O)[C@H](Cc2ccc(C(F)(F)F)cc2)N2C[C@H](C)CC[C@@H](C2=O)N(C)C(=O)CN(C)C1=O [PP1382] | 7.80 | 10.17 | B (a compound having 3 or more and less than 10 is denoted as B) | B (a compound having 3 or more and less than 10 is denoted as B)
CC[C@H](C)[C@@H]1NC(=O)[C@H](CC)N(C)C(=O)C[C@@H](C(=O)N2CCOCC2)N(C)C(=O)[C@H](C2CCCC2)N(C)C(=O)C2(CCCC2)NC(=O)[C@@H]2CCCN2C(=O)[C@H](CCc2cc(F)c(C(F)(F)F)c(F)c2)NC(=O)CN(C)C(=O)[C@H](Cc2ccc(C(F)(F)F)cc2)N2C[C@H](C)CC[C@@H](C2=O)N(C)C(=O)CN(C)C1=O [PP1383] | 7.95 | 9.77 | B (a compound having 3 or more and less than 10 is denoted as B) | B (a compound having 3 or more and less than 10 is denoted as B)
CC[C@H](C)[C@@H]1NC(=O)[C@H](CC)N(C)C(=O)C[C@@H](C(=O)N2CCOCC2)N(C)C(=O)[C@H](C2CCCC2)N(C)C(=O)C2(CCC2)NC(=O)[C@@H]2CCCN2C(=O)[C@H](CCc2cc(F)c(C(F)(F)F)c(F)c2)NC(=O)CN(C)C(=O)[C@H](Cc2ccc(C(F)(F)F)cc2)N2C[C@H](C)CC[C@@H](C2=O)N(C)C(=O)CN(C)C1=O [PP1384] | 7.87 | 9.96 | A (a compound having 10 or more and less than 20 is denoted as A) | B (a compound having 3 or more and less than 10 is denoted as B)
CC[C@H](C)[C@@H]1NC(=O)[C@H](CC2CCC2)N(C)C(=O)C[C@@H](C(=O)N(C)C)N(C)C(=O)[C@H](C2CCCC2)N(C)C(=O)C2(CCCC2)NC(=O)[C@@H]2CCCN2C(=O)[C@H](CCc2cc(F)c(C(F)(F)F)c(F)c2)NC(=O)CN(C)C(=O)[C@H](Cc2ccc(C(F)(F)F)cc2)N2C[C@H](C)CC[C@@H](C2=O)N(C)C(=O)CN(C)C1=O [PP1386] | 8.38 | 10.09 | B (a compound having 3 or more and less than 10 is denoted as B) | B (a compound having 3 or more and less than 10 is denoted as B)
CCO[C@@H]1C[C@H]2C(=O)NC3(CCC3)C(=O)N(C)[C@@H](C3CCCC3)C(=O)N(C)[C@H](C(=O)N(C)C)CC(=O)N(C)[C@@H](CC3CCCC3)C(=O)N[C@@H]([C@@H](C)CC)C(=O)N(C)CC(=O)N(C)[C@H]3C/C=C\CCN(C3=O)[C@@H](Cc3ccc(F)cc3)C(=O)N(C)CC(=O)N[C@@H](CCc3ccc4sccc4c3)C(=O)N2C1 [PP1390] | 6.52 | 8.96 | A (a compound having 10 or more and less than 20 is denoted as A) | A (a compound having 10 or more and less than 20 is denoted as A)
CCO[C@@H]1C[C@H]2C(=O)NC3(CCC3)C(=O)N(C)[C@@H](C3CCCC3)C(=O)N(C)[C@H](C(=O)N3CCCC3)CC(=O)N(C)[C@@H](CC3CCCC3)C(=O)N[C@@H]([C@@H](C)CC)C(=O)N(C)CC(=O)N(C)[C@H]3C/C=C\CCN(C3=O)[C@@H](Cc3ccc(F)cc3)C(=O)N(C)CC(=O)N[C@@H](CCc3ccc4sccc4c3)C(=O)N2C1 [PP1391] | 6.57 | 8.80 | A (a compound having 10 or more and less than 20 is denoted as A) | A (a compound having 10 or more and less than 20 is denoted as A)
CCCC[C@H]1C(=O)N[C@@H]([C@@H](C)CC)C(=O)N(C)CC(=O)N(C)[C@H]2C/C=C\CCN(C2=O)[C@@H](Cc2ccc(C(F)(F)F)cc2)C(=O)N(C)CC(=O)N[C@@H](CCc2cc(F)c(C(F)(F)F)c(F)c2)C(=O)N2C[C@H](OCC)C[C@H]2C(=O)NC2(CCC2)C(=O)N(C)[C@@H](C2CCCC2)C(=O)N(C)[C@H](C(=O)N(C)C)CC(=O)N1C [PP1392, (2S,8S,12R,14S,20S,23S,27S,30S,36S,38Z)-27-butyl-20-cyclopentyl-8-[2-[3,5-difluoro-4-(trifluoromethyl)phenyl]ethyl]-12-ethoxy-N,N,4,19,22,26,32,35-octamethyl-30-[(1S)-1-methylpropyl]-3,6,9,15,18,21,25,28,31,34,42-undecaoxo-2-[[4-(trifluoromethyl)phenyl]methyl]spiro[1,4,7,10,16,19,22,26,29,32,35-undecazatricyclo[34.5.1.0^10,14]dotetracont-38-ene-17,1′-cyclobutane]-23-carboxamide] | 8.85 | 10.33 | A (a compound having 10 or more and less than 20 is denoted as A) | A (a compound having 10 or more and less than 20 is denoted as A)
